Measurements reported in ChEMBL document CHEMBL4138291, “Mucroniferanines A-G, Isoquinoline Alkaloids from Corydalis mucronifera” (J Nat Prod, 2018).

The compounds below were run against Acetylcholinesterase (Homo sapiens, UniProt P22303) (assay: Inhibition of human erythrocyte AChE using S-acetylthiocholine iodide as substrate pretreated for 20 mins followed by substrate addition measured after 30 mins by Ellman's method).
Chain of Acetylcholinesterase (P22303 whole entry): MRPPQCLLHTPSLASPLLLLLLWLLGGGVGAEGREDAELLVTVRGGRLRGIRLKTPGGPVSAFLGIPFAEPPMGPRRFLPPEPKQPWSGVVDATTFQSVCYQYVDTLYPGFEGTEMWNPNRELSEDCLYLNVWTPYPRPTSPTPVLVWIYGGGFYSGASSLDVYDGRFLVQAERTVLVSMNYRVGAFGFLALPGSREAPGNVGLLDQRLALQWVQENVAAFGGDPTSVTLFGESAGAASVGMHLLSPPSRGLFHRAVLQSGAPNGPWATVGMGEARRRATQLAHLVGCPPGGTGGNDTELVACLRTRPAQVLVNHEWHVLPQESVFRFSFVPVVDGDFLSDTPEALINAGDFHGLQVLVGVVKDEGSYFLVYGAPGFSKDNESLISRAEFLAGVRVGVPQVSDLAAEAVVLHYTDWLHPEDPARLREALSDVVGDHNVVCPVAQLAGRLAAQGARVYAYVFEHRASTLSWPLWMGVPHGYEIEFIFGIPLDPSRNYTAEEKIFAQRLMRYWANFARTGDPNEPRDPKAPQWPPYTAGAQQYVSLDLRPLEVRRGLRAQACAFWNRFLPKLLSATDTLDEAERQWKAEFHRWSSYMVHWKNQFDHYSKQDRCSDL
COc1ccc2c(c1O)CN1CCc3cc4c(cc3C1C2)OCO4 (configuration not stated) was tested, and the IC50 was greater than 100 µM. Work on C[C@@]1(c2nccc3cc4c(cc23)OCO4)Oc2ccc3c(c2O1)OCO3 yielded an IC50 greater than 100 µM. With CO[C@@H]1O[C@](C)(c2nccc3cc4c(cc23)OCO4)c2ccc3c(c21)OCO3 the IC50 was greater than 100 µM. In the case of CN1CCc2cc3c(cc2[C@H]1[C@H]1O[C@@H](O)c2c1ccc1c2OCO1)OCO3, the IC50 is reported as greater than 100 µM. Compound CO[C@@H]1O[C@H]([C@@H]2c3cc4c(cc3CCN2C)OCO4)c2ccc3c(c21)OCO3 has an IC50 greater than 100 µM. Work on CO[C@@H]1O[C@@](C)(c2nccc3cc4c(cc23)OCO4)c2ccc3c(c21)OCO3 yielded an IC50 greater than 100 µM. Compound c1cc2cc3c(cc2c([C@H]2Oc4ccc5c(c4O2)OCO5)n1)OCO3 has an IC50 of 78.1 µM. Work on CN1CCc2cc3c(cc2[C@H]1[C@H]1OC(=O)c2c1ccc1c2OCO1)OCO3 yielded an IC50 greater than 100 µM. For C[C@@H](c1ccc2c(c1O)OCO2)c1nccc2cc3c(cc12)OCO3, the IC50 was greater than 100 µM. Work on CO[C@H]1O[C@@](C)(c2nccc3cc4c(cc23)OCO4)c2ccc3c(c21)OCO3 yielded an IC50 of 28.3 µM. With CN1CCc2cc3c(cc2C1=O)OCO3 the IC50 was greater than 100 µM. C[C@]1(c2nccc3cc4c(cc23)OCO4)Oc2ccc3c(c2O1)OCO3 gave an IC50 greater than 100 µM. Compound COC1c2c(ccc3c2OCO3)-c2ccc3cc4c(cc3c2N1C)OCO4 (configuration not stated) has an IC50 of 96.8 µM. c1cc2cc3c(cc2c([C@@H]2Oc4ccc5c(c4O2)OCO5)n1)OCO3 gave an IC50 greater than 100 µM. C[C@H](c1ccc2c(c1O)OCO2)c1nccc2cc3c(cc12)OCO3 gave an IC50 greater than 100 µM. CO[C@H]1O[C@](C)(c2nccc3cc4c(cc23)OCO4)c2ccc3c(c21)OCO3 gave an IC50 greater than 100 µM. Compound CN1CCc2cc3c(cc2[C@@]12C(=O)c1ccc4c(c1[C@@H]2O)OCO4)OCO3 has an IC50 greater than 100 µM. With CN1CCc2cc3c(cc2C(=O)Cc2ccc4c(c2C1)OCO4)OCO3 the IC50 was greater than 100 µM. Compound CN1CCc2cc3c(cc2C12OCc1c(ccc4c1OCO4)C2=O)OCO3 (racemic) has an IC50 greater than 100 µM. CC1(c2nccc3cc4c(cc23)OCO4)OC(O)c2c1ccc1c2OCO1 (single isomer, unassigned) showed an IC50 of 11.3 µM. With CC1(c2nccc3cc4c(cc23)OCO4)OC(O)c2c1ccc1c2OCO1 (single isomer, unassigned; epimer 1) the IC50 was 12.2 µM. Compound CN1Cc2c(ccc3c2OCO3)-c2ccc3cc4c(cc3c21)OCO4 [DIHYDROSANGUINARINE] has an IC50 greater than 100 µM.
